Experimental data from article PMC8269116 (Journal of psychopharmacology (Oxford, England), 2019).
“And” between values parts separate entries of the source, which are not always exact repeats. Identical values can stand only once. Like-named read-outs stand apart in the source and are kept apart here.

Assays:
DAT [1] = target: T1, DAT (Homo sapiens, UniProt Q01959); assay: [3H]dopamine uptake inhibition in HEK 293 cells overexpressing human DAT; assay type: cell-based; conditions: for increase of dopamine uptake: anomalous increase at some concentrations, non-sigmoidal curves; for DAT/SERT ratio: 1/DAT IC50 : 1/SERT IC50, mean and 95% confidence interval
[2] = target: human 5-HT transporter (SERT) (Homo sapiens, UniProt P31645); assay: [3H]5-HT uptake inhibition in HEK 293 cells overexpressing human SERT; assay type: cell-based
NET [3] = target: T2, NET (Homo sapiens, UniProt P23975); assay: Radioligand binding, N-methyl-[3H]nisoxetine displacement
DAT [4] = target: T1, DAT; assay: Radioligand binding, [3H]WIN35,428 displacement
SERT = SERT (Homo sapiens, UniProt P31645); assay: Radioligand binding, [3H]citalopram displacement
dopamine D2 receptors = dopamine D2 receptors (Homo sapiens, UniProt P14416); assay: Radioligand binding, [3H]spiperone displacement
[5] = target: T3, α1 adrenergic receptor (α1A) (Homo sapiens, UniProt P35348); assay: Radioligand binding, [3H]prazosin displacement; conditions: read-out: α1A Ki; mean±SD, n=3
T3 sequence (P35348 1-466): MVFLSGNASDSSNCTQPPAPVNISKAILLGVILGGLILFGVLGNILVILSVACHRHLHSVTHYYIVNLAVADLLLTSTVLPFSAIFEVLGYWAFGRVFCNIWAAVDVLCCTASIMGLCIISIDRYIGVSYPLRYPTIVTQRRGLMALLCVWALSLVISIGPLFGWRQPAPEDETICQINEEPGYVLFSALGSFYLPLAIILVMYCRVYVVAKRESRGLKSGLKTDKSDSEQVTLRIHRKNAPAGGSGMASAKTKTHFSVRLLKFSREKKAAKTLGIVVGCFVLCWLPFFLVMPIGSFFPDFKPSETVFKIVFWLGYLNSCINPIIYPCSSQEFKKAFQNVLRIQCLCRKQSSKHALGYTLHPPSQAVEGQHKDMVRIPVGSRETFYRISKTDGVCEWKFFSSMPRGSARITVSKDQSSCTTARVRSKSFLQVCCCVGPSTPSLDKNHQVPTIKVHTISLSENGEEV

[6] = target: T4, α2 adrenergic receptor (α2A) (Homo sapiens, UniProt P08913); assay: Radioligand binding, [3H]rauwolscine displacement; conditions: read-out: α2A Ki; mean±SD, n=3
T4 sequence (P08913 1-465): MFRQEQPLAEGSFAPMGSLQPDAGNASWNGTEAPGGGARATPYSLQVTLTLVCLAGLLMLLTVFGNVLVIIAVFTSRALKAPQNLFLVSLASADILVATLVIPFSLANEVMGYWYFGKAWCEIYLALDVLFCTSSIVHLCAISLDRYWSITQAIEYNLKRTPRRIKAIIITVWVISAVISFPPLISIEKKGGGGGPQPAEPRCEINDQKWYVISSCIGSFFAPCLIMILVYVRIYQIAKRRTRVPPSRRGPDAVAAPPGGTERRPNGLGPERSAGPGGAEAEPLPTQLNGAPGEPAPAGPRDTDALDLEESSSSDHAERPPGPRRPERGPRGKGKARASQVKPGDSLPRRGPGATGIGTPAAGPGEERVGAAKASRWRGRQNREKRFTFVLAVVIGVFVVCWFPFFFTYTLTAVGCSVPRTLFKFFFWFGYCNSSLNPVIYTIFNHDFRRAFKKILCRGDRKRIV

5-HT1A receptor = target: T5, 5-HT1A receptor (Homo sapiens, UniProt P08908); assay: Radioligand binding, [3H]8-hydroxy-2-; conditions: read-out: 5-HT1A Ki; mean±SD, n=3
T5 sequence (P08908 1-422): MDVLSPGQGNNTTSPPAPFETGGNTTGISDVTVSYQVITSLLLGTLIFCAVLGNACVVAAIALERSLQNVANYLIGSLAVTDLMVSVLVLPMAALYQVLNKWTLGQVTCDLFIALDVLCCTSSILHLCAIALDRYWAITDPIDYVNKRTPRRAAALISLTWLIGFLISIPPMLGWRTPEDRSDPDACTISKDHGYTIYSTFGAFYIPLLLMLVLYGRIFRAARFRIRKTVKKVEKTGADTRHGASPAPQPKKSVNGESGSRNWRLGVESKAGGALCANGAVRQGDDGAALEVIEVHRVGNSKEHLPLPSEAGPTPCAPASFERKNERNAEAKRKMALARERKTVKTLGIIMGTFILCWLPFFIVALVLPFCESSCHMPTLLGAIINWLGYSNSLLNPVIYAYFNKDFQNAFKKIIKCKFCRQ

5-HT2A receptor = 5-HT2A receptor (Homo sapiens, UniProt P28223); assay: Radioligand binding, [3H]ketanserin displacement
5-HT2C receptor = target: T6, 5-HT2C receptor (Homo sapiens, UniProt P28335); assay: biochemical; assay type: binding; conditions: read-out: 5-HT2c Ki; mean±SD, n=3
T6 sequence (P28335 33-458): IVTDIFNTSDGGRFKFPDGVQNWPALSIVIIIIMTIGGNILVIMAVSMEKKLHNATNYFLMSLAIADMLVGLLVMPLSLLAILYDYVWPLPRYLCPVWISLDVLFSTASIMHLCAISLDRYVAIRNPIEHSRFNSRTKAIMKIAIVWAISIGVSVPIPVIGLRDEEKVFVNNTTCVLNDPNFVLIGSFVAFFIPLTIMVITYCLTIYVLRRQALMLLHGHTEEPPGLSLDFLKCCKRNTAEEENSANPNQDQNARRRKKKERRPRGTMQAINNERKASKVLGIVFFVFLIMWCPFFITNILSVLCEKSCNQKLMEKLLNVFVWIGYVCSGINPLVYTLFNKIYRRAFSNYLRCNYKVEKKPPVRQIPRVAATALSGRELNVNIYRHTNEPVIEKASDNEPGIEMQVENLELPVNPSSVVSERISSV

rat TAAR1 = rat TAAR1 (Rattus norvegicus, UniProt Q923Y9); assay: Radioligand binding, [3H]RO5166017 displacement
mouse TAAR1 = mouse TAAR1 (Mus musculus, UniProt Q923Y8); assay: Radioligand binding, [3H]RO5166017 displacement
[7] = rat plasma, ref Elmore et al., 2017, cited from earlier work; for amount in plasma as % of parent compound methylone: subcutaneous injections of methylone; for time at which Cmax was reached: subcutaneous methylone
[8] = rats, ref Anizan et al., 2016, cited from earlier work; for maximal concentration as % of the parent compound MDPV: subcutaneous 0.5–2 mg/kg MDPV; for Tmax: subcutaneous injections of 0.5–2 mg/kg MDPV
[9] = after subcutaneous methylone, ref Stefkova et al., 2017, cited from earlier work
NET [10] = target: T2, NET; assay: [3H]norepinephrine uptake inhibition in HEK 293 cells overexpressing human NET; assay type: cell-based
[11] = read-out: SERT IC50, 5-HT uptake inhibition, mean and 95% confidence interval
[12] = read-out: SERT Ki, mean±SD, n=3
[13] = read-out: 5-HT2A Ki, mean±SD, n=3
[14] = read-out: TAAR1rat Ki, mean±SD, n=3
[15] = read-out: TAAR1mouse Ki, mean±SD, n=3

Sequence of 5-HT2A receptor (P28223 whole entry): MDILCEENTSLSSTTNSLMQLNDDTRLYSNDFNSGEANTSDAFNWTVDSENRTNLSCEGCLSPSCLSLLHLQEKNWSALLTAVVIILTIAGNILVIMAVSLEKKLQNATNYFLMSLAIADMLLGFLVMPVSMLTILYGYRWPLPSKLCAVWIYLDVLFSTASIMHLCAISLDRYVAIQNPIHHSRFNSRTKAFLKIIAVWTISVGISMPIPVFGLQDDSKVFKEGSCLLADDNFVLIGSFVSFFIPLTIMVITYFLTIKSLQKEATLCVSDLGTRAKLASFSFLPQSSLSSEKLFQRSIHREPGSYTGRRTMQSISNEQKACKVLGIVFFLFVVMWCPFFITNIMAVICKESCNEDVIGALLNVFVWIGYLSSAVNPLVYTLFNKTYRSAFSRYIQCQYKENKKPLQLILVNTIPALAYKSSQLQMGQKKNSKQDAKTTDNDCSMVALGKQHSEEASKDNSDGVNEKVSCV
Sequence of rat TAAR1 (Q923Y9 whole entry): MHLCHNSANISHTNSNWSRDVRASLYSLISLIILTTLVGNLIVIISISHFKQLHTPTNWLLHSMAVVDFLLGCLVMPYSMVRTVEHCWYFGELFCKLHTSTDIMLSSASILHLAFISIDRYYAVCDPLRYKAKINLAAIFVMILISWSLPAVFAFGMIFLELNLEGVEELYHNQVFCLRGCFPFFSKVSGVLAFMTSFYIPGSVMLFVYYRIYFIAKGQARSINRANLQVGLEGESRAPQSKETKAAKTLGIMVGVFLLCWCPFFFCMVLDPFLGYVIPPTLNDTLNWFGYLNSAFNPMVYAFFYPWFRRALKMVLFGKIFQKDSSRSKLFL
Sequence of SERT (P31645 whole entry): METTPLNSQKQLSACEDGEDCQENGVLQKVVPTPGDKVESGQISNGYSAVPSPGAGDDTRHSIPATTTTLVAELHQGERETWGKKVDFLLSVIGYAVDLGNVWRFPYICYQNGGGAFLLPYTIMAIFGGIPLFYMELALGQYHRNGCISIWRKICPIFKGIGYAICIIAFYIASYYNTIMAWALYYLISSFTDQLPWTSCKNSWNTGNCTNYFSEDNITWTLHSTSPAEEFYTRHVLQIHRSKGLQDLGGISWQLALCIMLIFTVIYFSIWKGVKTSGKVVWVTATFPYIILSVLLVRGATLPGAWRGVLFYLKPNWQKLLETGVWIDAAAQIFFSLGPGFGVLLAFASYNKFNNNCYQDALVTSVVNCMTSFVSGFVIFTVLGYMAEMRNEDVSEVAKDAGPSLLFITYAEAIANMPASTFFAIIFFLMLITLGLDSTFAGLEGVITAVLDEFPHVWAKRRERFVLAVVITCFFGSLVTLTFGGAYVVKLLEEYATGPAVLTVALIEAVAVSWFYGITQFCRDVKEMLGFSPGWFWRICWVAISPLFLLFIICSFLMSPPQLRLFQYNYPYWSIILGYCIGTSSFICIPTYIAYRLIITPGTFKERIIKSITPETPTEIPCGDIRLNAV
Sequence of human 5-HT transporter (SERT) (P31645 whole entry): as above
Sequence of mouse TAAR1 (Q923Y8 whole entry): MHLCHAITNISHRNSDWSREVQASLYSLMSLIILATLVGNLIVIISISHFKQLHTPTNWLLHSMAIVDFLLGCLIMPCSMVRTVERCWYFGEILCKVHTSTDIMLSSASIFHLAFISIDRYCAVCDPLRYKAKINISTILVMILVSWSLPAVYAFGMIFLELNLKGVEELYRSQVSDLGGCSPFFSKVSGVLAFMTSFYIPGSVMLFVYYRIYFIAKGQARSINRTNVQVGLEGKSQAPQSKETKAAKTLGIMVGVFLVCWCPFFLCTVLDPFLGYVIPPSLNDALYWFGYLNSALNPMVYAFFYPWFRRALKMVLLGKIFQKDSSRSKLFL
T2 sequence (P23975 whole entry): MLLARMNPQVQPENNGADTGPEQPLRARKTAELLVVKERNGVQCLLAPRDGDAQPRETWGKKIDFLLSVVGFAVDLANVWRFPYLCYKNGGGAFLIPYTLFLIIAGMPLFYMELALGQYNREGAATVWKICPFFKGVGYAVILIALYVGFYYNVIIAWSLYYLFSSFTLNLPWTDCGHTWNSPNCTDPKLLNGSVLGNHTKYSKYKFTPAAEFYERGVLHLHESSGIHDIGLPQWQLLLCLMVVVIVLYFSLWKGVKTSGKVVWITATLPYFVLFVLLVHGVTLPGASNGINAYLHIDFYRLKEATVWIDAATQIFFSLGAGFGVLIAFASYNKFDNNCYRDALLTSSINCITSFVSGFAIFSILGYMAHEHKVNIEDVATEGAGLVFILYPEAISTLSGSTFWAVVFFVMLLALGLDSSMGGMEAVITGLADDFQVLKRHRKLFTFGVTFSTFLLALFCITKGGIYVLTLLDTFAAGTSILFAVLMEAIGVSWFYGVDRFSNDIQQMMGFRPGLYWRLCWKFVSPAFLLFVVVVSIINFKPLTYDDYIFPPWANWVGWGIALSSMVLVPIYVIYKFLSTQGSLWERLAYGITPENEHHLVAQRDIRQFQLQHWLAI
Sequence of dopamine D2 receptors (P14416 whole entry): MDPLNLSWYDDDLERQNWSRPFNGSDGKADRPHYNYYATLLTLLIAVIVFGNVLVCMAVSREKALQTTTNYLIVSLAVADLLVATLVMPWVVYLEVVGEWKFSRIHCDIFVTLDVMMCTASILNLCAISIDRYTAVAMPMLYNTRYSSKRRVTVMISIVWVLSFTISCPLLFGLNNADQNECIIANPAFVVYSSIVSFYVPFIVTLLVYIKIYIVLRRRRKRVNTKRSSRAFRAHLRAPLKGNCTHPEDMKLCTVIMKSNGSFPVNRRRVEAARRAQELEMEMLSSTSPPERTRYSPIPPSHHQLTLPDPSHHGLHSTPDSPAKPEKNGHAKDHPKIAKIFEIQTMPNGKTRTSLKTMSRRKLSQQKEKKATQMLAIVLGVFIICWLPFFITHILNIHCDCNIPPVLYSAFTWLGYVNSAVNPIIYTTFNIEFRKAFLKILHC
T1 sequence (Q01959 whole entry): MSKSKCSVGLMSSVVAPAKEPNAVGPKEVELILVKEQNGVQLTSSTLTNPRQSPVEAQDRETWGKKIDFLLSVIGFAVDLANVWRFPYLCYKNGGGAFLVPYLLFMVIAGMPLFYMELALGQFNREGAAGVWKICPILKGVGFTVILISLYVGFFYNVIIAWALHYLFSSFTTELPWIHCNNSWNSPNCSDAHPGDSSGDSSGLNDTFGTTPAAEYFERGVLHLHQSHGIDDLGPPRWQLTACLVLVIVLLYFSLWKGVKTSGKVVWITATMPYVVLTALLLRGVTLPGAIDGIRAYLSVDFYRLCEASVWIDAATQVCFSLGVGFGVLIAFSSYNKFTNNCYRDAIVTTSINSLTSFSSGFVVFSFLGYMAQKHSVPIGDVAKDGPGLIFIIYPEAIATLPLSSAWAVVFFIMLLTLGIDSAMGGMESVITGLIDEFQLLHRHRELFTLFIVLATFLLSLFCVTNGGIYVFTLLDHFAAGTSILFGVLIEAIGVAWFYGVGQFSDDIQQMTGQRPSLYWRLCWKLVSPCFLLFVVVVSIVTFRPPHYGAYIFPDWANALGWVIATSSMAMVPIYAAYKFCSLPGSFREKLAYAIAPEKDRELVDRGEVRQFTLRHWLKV

Structure (SMILES)	IC50 [2, 11] [µM]	Ki (NET [3]; read-out: NET Ki, mean±SD, n=3)	Ki (DAT [4]; read-out: DAT Ki, mean±SD, n=3)	Ki (SERT; [12]) [µM]	Ki (dopamine D2 receptors; read-out: D2 Ki, mean±SD, n=3) [µM]	Ki [5] [µM]	Ki [6] [µM]	Ki (5-HT1A receptor) [µM]	Ki (5-HT2A receptor; [13]) [µM]	Ki (5-HT2C receptor)	Ki (rat TAAR1; [14]) [µM]	Ki (mouse TAAR1; [15]) [µM]	amount in plasma as % of parent compound methylone [7]	time at which Cmax was reached [7] [min]	Tmax [8] [h]	also measured
CNC(C)Cc1ccc(O)c(O)c1 (stereo not drawn) [HHMA, 3,4-dihydroxymethamphetamine]	65	0.94 ± 0.14 µM	1.9 µM	> 7.4	> 13	> 9.5	1.3 ± 0.1	> 18	> 12	> 5.1 µM	3 ± 0.3	> 4.4	–	–	–	increase of dopamine uptake (DAT [1]): more than 200%
CNC(C)C(=O)c1ccc(O)c(O)c1 (stereo not drawn) [HHMC, 3,4-Dihydroxymethcathinone]	> 100	4 ± 1 µM	7.1 ± 0.3 µM	> 7.4	> 13	> 9.5	> 4.7	> 18	> 12	> 5.1 µM	2.2 ± 0.1	> 4.4	10–13%	60 to 70	–	increase of dopamine uptake (DAT [1]): more than 200%
CCCC(C(=O)c1ccc(O)c(O)c1)N1CCCC1 (stereo not drawn) [HHPV, 3,4-dihydroxypyrovalerone]	> 100	0.11 ± 0.01 µM	0.02 µM and 0.023 µM	> 7.4	> 13	> 9.5	> 4.7	4.3 ± 1.6	> 12	> 5.1 µM	> 5.2	> 4.4	–	–	3.43 to 4.28	maximal concentration as % of the parent compound MDPV [8]: 12–19%
CNC(C)C(=O)c1ccc(O)c(OC)c1 (stereo not drawn) [HMMC, 4-hydroxy-3-methyoxymethcathinone]	> 100	4 µM and 4.2 µM	> 8.5 µM	> 7.4	> 13	> 9.5	> 4.7	> 18	> 12	> 5.1 µM	> 5.2	> 4.4	12–22%	90 to 120	–	maximum dopamine transporter inhibition (DAT [1]; partial inhibition of dopamine uptake): 26%
CCCC(C(=O)c1ccc(O)c(OC)c1)N1CCCC1 (stereo not drawn) [HMPV, 4-hydroxy-3-methyoxypyrovalerone]	> 100	6.2 ± 0.7 µM	2 ± 0.2 µM	> 7.4	> 13	> 9.5	> 4.7	> 17	> 12	> 5.1 µM	> 5.2	> 4.4	–	–	3.15 to 3.43	maximal concentration as % of the parent compound MDPV [8]: 53–61%
CC(N)C(=O)c1ccc2c(c1)OCO2 (stereo not drawn) [MDC, 3,4-methylenedioxycathinone]	13	> 8.8 µM	> 8.5 µM	> 7.4	> 13	> 9.5	> 4.7	> 17	> 12	> 5.1 µM	–	3.5 ± 0.3	10–13%	30 to 45	–	DAT/SERT ratio (DAT [1]): 0.38 (0.24–0.59); delay of serum peak relative to methylone [9]: 30 min; serum level as % of the methylone levels ([9]; peak): about 20%
CNC(C)Cc1ccc2c(c1)OCO2 (stereo not drawn) [MDMA, 3,4-Methylenedioxymethamphetmine, reference compound]	–	–	–	–	–	–	–	–	–	–	–	–	–	–	–	IC50 (NET [10]): 0.38 µM; IC50 (DAT [1]): 21 µM; IC50 [2]: 2.5 µM; Ki (NET [3]): > 8.7 µM; Ki (DAT [4]): > 8.5 µM; Ki (SERT): > 7.5 µM; Ki (dopamine D2 receptors): > 13 µM; Ki (5-HT2A receptor): 4.6 ± 1.1 µM; Ki (rat TAAR1): 0.25 ± 0.01 µM; Ki (mouse TAAR1): 3.1 ± 0.7 µM
CCCC(C(=O)c1ccc2c(c1)OCO2)N1CCCC1 (stereo not drawn) [MDPV, 3,4-methylenedioxypyrovalerone, reference compound]	12	0.1 ± 0.01 µM	0.01 µM and 0.011 µM	2.2 ± 0.1	> 13	> 9.5	> 5	12 ± 2	> 12	2 µM and 2.1 µM	> 5	> 4.7	–	–	0.217 to 0.317	DAT/SERT ratio (DAT [1]): 226 (143–350)
